Tested on: Plasmodium berghei
Assay: Luciferase/luciferin-expressing antifolate-resistant parasites were used to infect a culture of HepG2 cells that were pre-incubated with compounds. Infected hepatocytes emit light due to the luciferase reaction. Assay results are presented as the percent inhibition of light emission compared to control. […]
Assay type: functional
Conditions: sporozoite; for IC90: read-out: LUCIFERASE INFECTION ASSAY - IC90
[1] = FFLUC_HILL_SLOPE 11.2, FFLUC_R_SQUARED 0.126, read-out: LUCIFERASE INFECTION ASSAY - IC50

Compound	IC90 [µM]	other results
CCn1cc(C(=O)N[C@@H](C)C(=O)OC)c(=O)c2cc3c(cc21)OCO3	> 9.53	IC50 (FFLUC_HILL_SLOPE 11.2, FFLUC_R_SQUARED 0.325, read-out: LUCIFERASE INFECTION ASSAY - IC50): > 9.53 µM
C=CCc1ccccc1OCCn1c(C2CC(=O)N(Cc3ccc(F)cc3)C2)nc2ccccc21 (centres undefined)	> 10	IC50 (FFLUC_HILL_SLOPE 11.3, FFLUC_R_SQUARED 0.11, read-out: LUCIFERASE INFECTION ASSAY - IC50): > 10 µM
CCN(CC)CCn1c(NC(=O)c2cc3c(C)nn(Cc4ccccc4)c3s2)nc2ccccc21	5.29	IC50 (FFLUC_HILL_SLOPE 11, FFLUC_R_SQUARED 0.377, PBLUC_HILL_SLOPE 1.67, PBLUC_R_SQUARED 0.43, read-out: LUCIFERASE INFECTION ASSAY - IC50): 1.42 µM
COC(=O)c1cc(C(=O)OC)cc(-n2c(C)cc(C(=O)Cn3ncc(Cl)c(Cl)c3=O)c2C)c1	4.48	IC50 (FFLUC_HILL_SLOPE 11.1, FFLUC_R_SQUARED 0.501, HEPG2TOX_HILL_SLOPE 4.27, HEPG2TOX_R_SQUARED 0.789, PBLUC_HILL_SLOPE 11.5, PBLUC_R_SQUARED 0.682, read-out: LUCIFERASE INFECTION ASSAY - IC50): 3.7 µM
Cc1ccc(S(=O)(=O)c2ccc(C(F)(F)F)cc2[N+](=O)[O-])cc1	> 9.56	IC50 (FFLUC_HILL_SLOPE 11, FFLUC_R_SQUARED 0.463, read-out: LUCIFERASE INFECTION ASSAY - IC50): > 9.56 µM
O=C(Nc1nc2ccccn2c1C(=O)NC1CCCC1)c1ccc(C(F)(F)F)cc1	0.325	IC50 (FFLUC_HILL_SLOPE 11.1, FFLUC_R_SQUARED 0.453, HEPG2TOX_HILL_SLOPE 0.561, HEPG2TOX_R_SQUARED 0.841, PBLUC_HILL_SLOPE 12.2, PBLUC_R_SQUARED 0.531, read-out: LUCIFERASE INFECTION ASSAY - IC50): 0.271 µM
Cc1ccccc1NC(=O)c1cc2ccccc2c(CN2CCC3(CC2)OCCO3)c1O	1.28	IC50 (FFLUC_HILL_SLOPE 10.9, FFLUC_R_SQUARED 0.858, HEPG2TOX_HILL_SLOPE 2.82, HEPG2TOX_R_SQUARED 0.87, PBLUC_HILL_SLOPE 1.78, PBLUC_R_SQUARED 0.84, read-out: LUCIFERASE INFECTION ASSAY - IC50): 0.373 µM
COc1ccc(N(C(C)=O)c2nc(/C=C/C(=O)c3ccc(F)cc3)cs2)cc1	> 10	IC50 (FFLUC_HILL_SLOPE 11.2, FFLUC_R_SQUARED 0.397, read-out: LUCIFERASE INFECTION ASSAY - IC50): > 10 µM
O=[N+]([O-])c1ccsc1Sc1ccc(C(F)(F)F)cn1	> 10.8	IC50 (FFLUC_HILL_SLOPE 11.2, FFLUC_R_SQUARED 0.0124, HEPG2TOX_HILL_SLOPE 0.715, HEPG2TOX_R_SQUARED 0.731, read-out: LUCIFERASE INFECTION ASSAY - IC50): > 10.8 µM
CN(C(=O)COc1cc2ccccc2cc1C(=O)NCc1ccccc1)C1CCCCC1	> 10	IC50 (FFLUC_HILL_SLOPE 11, FFLUC_R_SQUARED 0.0654, read-out: LUCIFERASE INFECTION ASSAY - IC50): > 10 µM
CCN(CC)S(=O)(=O)c1ccc(Cl)c(NC(=O)CSc2nnc(-c3ccc(F)cc3)c3ccccc23)c1	> 10	IC50 (FFLUC_HILL_SLOPE 11.3, FFLUC_R_SQUARED 0.167, read-out: LUCIFERASE INFECTION ASSAY - IC50): > 10 µM
CCOC(=O)C1CCN(c2cc(C(F)(F)F)nc3c(F)cccc23)CC1	> 8.91	IC50 (FFLUC_HILL_SLOPE 11, FFLUC_R_SQUARED 0.219, read-out: LUCIFERASE INFECTION ASSAY - IC50): > 8.91 µM
Clc1cc2c(c3ncccc13)OCN(C1CCCC1)C2	2.79	IC50 (FFLUC_HILL_SLOPE 11.1, FFLUC_R_SQUARED 0.223, HEPG2TOX_HILL_SLOPE 2.6, HEPG2TOX_R_SQUARED 0.787, PBLUC_HILL_SLOPE 4.7, PBLUC_R_SQUARED 0.818, read-out: LUCIFERASE INFECTION ASSAY - IC50): 1.75 µM
O=C(NC(c1ccccc1)c1ccccc1)[C@@H]1C[C@@H](OCc2ccccc2)CN1CC1CCCCC1	> 6.84	IC50 (FFLUC_HILL_SLOPE 11.2, FFLUC_R_SQUARED 0.284, read-out: LUCIFERASE INFECTION ASSAY - IC50): > 6.84 µM
CCOc1cc(/C=C/C(=O)N(c2ccccc2)c2nc(-c3ccc(F)cc3)cs2)cc(Cl)c1OC	> 10	IC50 (FFLUC_HILL_SLOPE 10.9, FFLUC_R_SQUARED 0.679, read-out: LUCIFERASE INFECTION ASSAY - IC50): > 10 µM
Cc1onc(-c2c(Cl)cccc2Cl)c1NC(=O)Nc1ccc(Oc2ccc(C(C)(C)C)cc2)nc1	> 6.45	IC50 (FFLUC_HILL_SLOPE 11.2, FFLUC_R_SQUARED 0.206, PBLUC_HILL_SLOPE 0.638, PBLUC_R_SQUARED 0.443, read-out: LUCIFERASE INFECTION ASSAY - IC50): 2.71 µM

Compound	IC90 [µM]	other results
N#CC1C(=N)Oc2c3c(c4ccccc4c2C1c1ccc(F)cc1)C(c1ccc(F)cc1)C(C#N)C(=N)O3 (centres undefined)	> 6.54	IC50 (FFLUC_HILL_SLOPE 11.1, FFLUC_R_SQUARED 0.748, PBLUC_HILL_SLOPE 2.09, PBLUC_R_SQUARED 0.0277, read-out: LUCIFERASE INFECTION ASSAY - IC50): 4.45 µM
CNc1cc(Nc2cc(C)c(Oc3cccc(C(C)(C)C)c3)cc2C)ncn1	8.49	IC50 (FFLUC_HILL_SLOPE 11.3, FFLUC_R_SQUARED 0.0353, HEPG2TOX_HILL_SLOPE 16.8, HEPG2TOX_R_SQUARED 0.912, PBLUC_HILL_SLOPE 9.72, PBLUC_R_SQUARED 0.605, read-out: LUCIFERASE INFECTION ASSAY - IC50): 6.77 µM
CC1CCc2nc(/C(C#N)=C/c3ccccc3OC(F)F)sc2C1 (centres undefined)	3.92	IC50 (FFLUC_HILL_SLOPE 11.1, FFLUC_R_SQUARED 0.825, PBLUC_HILL_SLOPE 3.87, PBLUC_R_SQUARED 0.911, read-out: LUCIFERASE INFECTION ASSAY - IC50): 2.22 µM
CC(NC(=O)COC(=O)CSc1ccc(Br)c2cccc(Cl)c12)c1ccccc1 (centres undefined)	> 10	IC50 (FFLUC_HILL_SLOPE 11.2, FFLUC_R_SQUARED 0.0748, PBLUC_HILL_SLOPE 1.42, PBLUC_R_SQUARED 0.0165, read-out: LUCIFERASE INFECTION ASSAY - IC50): > 10 µM
CCCNC(=O)c1c(NC(=O)c2ccc(C(F)(F)F)cc2)nc2ccc(C)cn12	1.11	IC50 (FFLUC_HILL_SLOPE 11.2, FFLUC_R_SQUARED 0.698, HEPG2TOX_HILL_SLOPE 0.884, HEPG2TOX_R_SQUARED 0.902, PBLUC_HILL_SLOPE 2.26, PBLUC_R_SQUARED 0.742, read-out: LUCIFERASE INFECTION ASSAY - IC50): 0.419 µM
COC(=O)c1cc(N/N=C2\C=CC(=O)c3ncccc32)cc(C(=O)OC)c1	3.38	IC50 (FFLUC_HILL_SLOPE 11, FFLUC_R_SQUARED 0.42, HEPG2TOX_HILL_SLOPE 0.866, HEPG2TOX_R_SQUARED 0.908, PBLUC_HILL_SLOPE 2.75, PBLUC_R_SQUARED 0.794, read-out: LUCIFERASE INFECTION ASSAY - IC50): 1.52 µM
O=C(c1cnc(N2CCCC2)s1)c1sc2cc(Cl)cc(Cl)c2c1Cl	> 10	IC50 (FFLUC_HILL_SLOPE 11, FFLUC_R_SQUARED 0.0847, HEPG2TOX_HILL_SLOPE 2.22, HEPG2TOX_R_SQUARED 0.924, PBLUC_HILL_SLOPE 1.87, PBLUC_R_SQUARED 0.226, read-out: LUCIFERASE INFECTION ASSAY - IC50): 6.85 µM
O=C(/C=C/c1cccnc1)c1ccc(S(=O)(=O)NCc2ccccc2Cl)cc1	5.93	IC50 (FFLUC_HILL_SLOPE 11, FFLUC_R_SQUARED 0.373, HEPG2TOX_HILL_SLOPE 8.76, HEPG2TOX_R_SQUARED 0.66, PBLUC_HILL_SLOPE 5.1, PBLUC_R_SQUARED 0.695, read-out: LUCIFERASE INFECTION ASSAY - IC50): 3.85 µM
CC(C)(C)c1ccc(C(=O)NCCOc2ccccc2Cl)cc1	0.863	IC50 (FFLUC_HILL_SLOPE 11.3, FFLUC_R_SQUARED 0.0884, PBLUC_HILL_SLOPE 2.08, PBLUC_R_SQUARED 0.74, read-out: LUCIFERASE INFECTION ASSAY - IC50): 0.3 µM
CCCc1ccc(-c2nc(NC(=O)C3CCCN(c4ncccn4)C3)sc2C)cc1 (centres undefined)	> 10	IC50 (FFLUC_HILL_SLOPE 11.3, FFLUC_R_SQUARED 0.0894, PBLUC_HILL_SLOPE 12.7, PBLUC_R_SQUARED 0.313, read-out: LUCIFERASE INFECTION ASSAY - IC50): 9.57 µM
Cc1ccc2cc(COC(=O)/C(=C/c3ccccc3)n3nnnc3C)c(Cl)nc2c1	> 10	IC50 [1]: > 10 µM
C=S(=O)(NC(=O)CSc1nc2ccccc2s1)c1ccc(Cl)cc1 (centres undefined)	> 8.31	IC50 [1]: > 8.31 µM
O=C(CN(Cc1c(F)cccc1Cl)C1CC1)Nc1ccccc1Cl	> 10	IC50 (FFLUC_HILL_SLOPE 11.2, FFLUC_R_SQUARED 0.995, read-out: LUCIFERASE INFECTION ASSAY - IC50): > 10 µM
Cc1nn(C)c2nc(-c3ccco3)cc(C(=O)Nc3ccnn3Cc3ccc(Cl)cc3Cl)c12	> 10	IC50 (FFLUC_HILL_SLOPE 11.1, FFLUC_R_SQUARED 0.205, read-out: LUCIFERASE INFECTION ASSAY - IC50): > 10 µM
CN(C)S(=O)(=O)c1cccc(NC(=S)N/N=C/c2cc3c(cc2[N+](=O)[O-])OCO3)c1	> 10	IC50 (FFLUC_HILL_SLOPE 11, FFLUC_R_SQUARED 0.0812, read-out: LUCIFERASE INFECTION ASSAY - IC50): > 10 µM
O=C(CCn1cnc([N+](=O)[O-])c1)Nc1nc(-c2ccccc2)c(-c2ccccc2)s1	7.85	IC50 (FFLUC_HILL_SLOPE 11.3, FFLUC_R_SQUARED 0.217, PBLUC_HILL_SLOPE 4.55, PBLUC_R_SQUARED 0.65, read-out: LUCIFERASE INFECTION ASSAY - IC50): 4.84 µM

— ChEMBL document CHEMBL4483862, “Open-source discovery of chemical leads for next-generation chemoprotective antimalarials” (2018)
